From US20260274814A1, “THIENYL COMPOUNDS FOR THE TREATMENT OF A CENTRAL NERVOUS SYSTEM DISEASE OR DISORDER” (Coreterra Therapeutics, Inc., priority 2023, published 2026)
Structures can show the parent of a compound that is named as a salt.

Tested on: mice
Test: Neuropharmacological Assay (SmartCube): automated behavioral signature of compound-treated mice compared with a database of reference drug classes
Assay type: in vivo
Conditions: for minimal effective dose: Mus musculus, ip, minimal effective dose: dose having 45% or more total activity in SmartCube, i.p., if only one dose tested, that dose is shown, read-out: MED; for AD / AG / AN / AP / AX / CE / HL / MS / PS / SH / UK: SmartCube class probability, 3.0 mg/kg i.p., 15 min before test
Method in brief: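 Probabilities reflect how closely the digitally recorded behavioural signature at 3.0 mg/kg i.p. matched each reference class (antipsychotic, anxiolytic, antidepressant etc.). Dosing occurred 15 min before testing. Minimal effective dose was the dose giving 45% or more total activity.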

Structure (SMILES)	minimal effective dose [mg/kg]	AD	AG	AN	AP	AX	CE	HL	MS	PS	SH	UK
CNC1CCc2c(C(F)(F)F)csc2C1 (centres unmarked) [Compound 180, N-methyl-3-(trifluoromethyl)-4,5,6,7-tetrahydrobenzothiophen-6-amine hydrochloride]	3	ND (^ <4%)	ND (^ <4%)	ND (^ <4%)	+++ (≥49%)	ND (^ <4%)	ND (^ <4%)	ND (^ <4%)	ND (^ <4%)	ND (^ <4%)	ND (^ <4%)	ND (^ <4%)
CNC1COc2cc(C)sc2C1 (centres unmarked) [Compound 181, N, 2-dimethyl-6,7-dihydro-5H-thieno[3,2-b]pyran-6-amine hydrochloride]	> 3	ND (^ <4%)	ND (^ <4%)	+ (≥4%)	+ (≥4%)	ND (^ <4%)	ND (^ <4%)	ND (^ <4%)	ND (^ <4%)	ND (^ <4%)	ND (^ <4%)	ND (^ <4%)
CNC1(C)CCc2scc(F)c2C1 (centres unmarked) [Compound 182, 3-fluoro-N, 5-dimethyl-6,7-dihydro-4H-benzothiophen-5-amine hydrochloride]	3	ND (^ <4%)	ND (^ <4%)	ND (^ <4%)	ND (^ <4%)	ND (^ <4%)	ND (^ <4%)	ND (^ <4%)	ND (^ <4%)	+ (≥4%)	+ (≥4%)	++ (≥24%)
Cc1cc2c(s1)CCC(N)C2 (centres unmarked) [Compound 185, 2-methyl-4,5,6,7-tetrahydrobenzothiophen-5-amine hydrochloride]	–	ND (^ <4%)	ND (^ <4%)	ND (^ <4%)	ND (^ <4%)	ND (^ <4%)	ND (^ <4%)	ND (^ <4%)	ND (^ <4%)	ND (^ <4%)	ND (^ <4%)	++ (≥24%)
NC1CCc2scc(C(F)(F)F)c2C1 (centres unmarked) [Compound 186, 3-(trifluoromethyl)-4,5,6,7-tetrahydrobenzothiophen-5-amine hydrochloride]	> 3	ND (^ <4%)	ND (^ <4%)	ND (^ <4%)	ND (^ <4%)	ND (^ <4%)	ND (^ <4%)	ND (^ <4%)	ND (^ <4%)	ND (^ <4%)	ND (^ <4%)	+ (≥4%)
NC1CCc2scc(Cl)c2C1 (centres unmarked) [Compound 187, 3-chloro-4,5,6,7-tetrahydrobenzothiophen-5-amine hydrochloride]	3	ND (^ <4%)	ND (^ <4%)	ND (^ <4%)	++ (≥24%)	ND (^ <4%)	ND (^ <4%)	ND (^ <4%)	ND (^ <4%)	ND (^ <4%)	ND (^ <4%)	++ (≥24%)
Cc1cc2c(s1)CC(N)CO2 (centres unmarked) [Compound 188, 2-methyl-6,7-dihydro-5H-thieno[3,2-b]pyran-6-amine hydrochloride]	> 3	ND (^ <4%)	ND (^ <4%)	ND (^ <4%)	ND (^ <4%)	+ (≥4%)	ND (^ <4%)	ND (^ <4%)	ND (^ <4%)	ND (^ <4%)	ND (^ <4%)	++ (≥24%)
CN(C)C1CCc2sc(Cl)cc2C1 (centres unmarked) [Compound 189, 2-chloro-N, N-dimethyl-4,5,6,7-tetrahydrobenzothiophen-5-amine hydrochloride]	> 3	ND (^ <4%)	ND (^ <4%)	ND (^ <4%)	ND (^ <4%)	ND (^ <4%)	ND (^ <4%)	ND (^ <4%)	ND (^ <4%)	ND (^ <4%)	ND (^ <4%)	++ (≥24%)
CNC1(C)CCc2scc(C(F)(F)F)c2C1 (centres unmarked) [Compound 190, N, 5-dimethyl-3-(trifluoromethyl)-6,7-dihydro-4H-benzothiophen-5-amine hydrochloride]	> 3	ND (^ <4%)	ND (^ <4%)	ND (^ <4%)	ND (^ <4%)	ND (^ <4%)	ND (^ <4%)	ND (^ <4%)	ND (^ <4%)	ND (^ <4%)	ND (^ <4%)	+ (≥4%)
NC1CCc2csc(C3CC3)c2C1 (centres unmarked) [Compound 193, 3-cyclopropyl-4,5,6,7-tetrahydro-2-benzothiophen-5-amine hydrochloride]	> 3	ND (^ <4%)	ND (^ <4%)	+ (≥4%)	ND (^ <4%)	ND (^ <4%)	ND (^ <4%)	ND (^ <4%)	ND (^ <4%)	ND (^ <4%)	ND (^ <4%)	ND (^ <4%)
CNC1CCc2sc(C)c(F)c2C1 (centres unmarked) [Compound 196, 3-fluoro-N, 2-dimethyl-4,5,6,7-tetrahydrobenzothiophen-5-amine hydrochloride]	3	ND (^ <4%)	ND (^ <4%)	ND (^ <4%)	ND (^ <4%)	ND (^ <4%)	ND (^ <4%)	ND (^ <4%)	ND (^ <4%)	ND (^ <4%)	ND (^ <4%)	+ (≥4%)
CNC1CCc2sc(C)cc2C1 (centres unmarked) [Compound 197, N, 2-dimethyl-4,5,6,7-tetrahydrobenzothiophen-5-amine hydrochloride]	3	ND (^ <4%)	ND (^ <4%)	ND (^ <4%)	ND (^ <4%)	ND (^ <4%)	ND (^ <4%)	ND (^ <4%)	ND (^ <4%)	ND (^ <4%)	ND (^ <4%)	+++ (≥49%)
Cc1scc2c1CCC(C)(N)C2 (centres unmarked) [Compound 200, 1,5-dimethyl-6,7-dihydro-4H-2-benzothiophen-5-amine hydrochloride]	3	ND (^ <4%)	ND (^ <4%)	++ (≥24%)	ND (^ <4%)	ND (^ <4%)	ND (^ <4%)	+ (≥4%)	ND (^ <4%)	++ (≥24%)	ND (^ <4%)	ND (^ <4%)
CNC1CCc2scc(C3CC3)c2C1 (centres unmarked) [Compound 201, 3-cyclopropyl-N-methyl-4,5,6,7-tetrahydrobenzothiophen-5-amine hydrochloride]	3	ND (^ <4%)	ND (^ <4%)	ND (^ <4%)	ND (^ <4%)	+ (≥4%)	ND (^ <4%)	ND (^ <4%)	ND (^ <4%)	ND (^ <4%)	ND (^ <4%)	++ (≥24%)
CNC1COc2c(sc(C)c2C)C1 (centres unmarked) [Compound 202, N, 2,3-trimethyl-6,7-dihydro-5H-thieno[3,2-b]pyran-6-amine hydrochloride]	3	+ (≥4%)	ND (^ <4%)	ND (^ <4%)	++ (≥24%)	++ (≥24%)	ND (^ <4%)	ND (^ <4%)	ND (^ <4%)	ND (^ <4%)	ND (^ <4%)	ND (^ <4%)
Cc1sc(F)c2c1CC(N)CC2 (centres unmarked) [Compound 203, 1-fluoro-3-methyl-4,5,6,7-tetrahydro-2-benzothiophen-5-amine hydrochloride]	3	ND (^ <4%)	ND (^ <4%)	ND (^ <4%)	ND (^ <4%)	ND (^ <4%)	ND (^ <4%)	ND (^ <4%)	ND (^ <4%)	ND (^ <4%)	ND (^ <4%)	+++ (≥49%)
N#Cc1scc2c1CC(N)CC2 (centres unmarked) [Compound 204, 6-amino-4,5,6,7-tetrahydro-2-benzothiophene-1-carbonitrile hydrochloride]	3	ND (^ <4%)	ND (^ <4%)	ND (^ <4%)	++++ (≥74%)	ND (^ <4%)	ND (^ <4%)	ND (^ <4%)	ND (^ <4%)	ND (^ <4%)	ND (^ <4%)	ND (^ <4%)
NC1CCc2scc(C3CC3)c2C1 (centres unmarked) [Compound 205, 3-cyclopropyl-4,5,6,7-tetrahydrobenzothiophen-5-amine hydrochloride]	> 3	ND (^ <4%)	ND (^ <4%)	ND (^ <4%)	ND (^ <4%)	ND (^ <4%)	ND (^ <4%)	ND (^ <4%)	ND (^ <4%)	ND (^ <4%)	ND (^ <4%)	++ (≥24%)
